This assay concerns the target melatonin receptors. The assay can be described thus: Test of binding to melatonin receptors. Here is the method:
Binding of compounds of the invention to melatonin receptors was carried out according to conventional techniques.

As for `COc1ccc2[nH]cc(CCNC(C)=O)c2c1` [melatonin], the Kd was 0.063 nM.

The Kd is the constant that tells how readily two partners part at equilibrium. A low value points to higher affinity.

Values taken from patent publication US5318994A, “N-[2-(7-lower-alkoxynaphth-1-yl)ethyl]benzamides” (Adir et Compagnie, priority 1990, dated 1994).
